How the values were obtained:
NIH3T3 cells [1] = experiment: ROS by H2-DCFDA probe after proton irradiation, NIH3T3; type: cell-based; settings: NIH3T3, pretreated 100 μM, TBHP 200 μM, 1 Gy proton, read 30 minutes post radiation
Text: Cell lines were irradiated using pencil beam scanning (PBS) proton beams produced by IBA ProteusOne (Ion Beam Applications, Louvain-la-Neuve, Belgium). Single layer mono-energy 227 MeV pencil beams with uniform spacing of 0.25 cm between each spot were used to create a large field size with uniform dose distribution (±2%) that encompassed all sample wells containing the cells. A fixed source to surface distance (SSD) setup and gantry at 180 degrees was used to delivery 0.5, 1, 2, 4, and 6 Gray (Gy) dose of ionizing radiation to cells. The cells were place at an 8 cm depth, with a linear energy transfer (LET) of approximately 1.7 keV/μm, using solid water slabs as a buildup. […] The monitor units needed to deliver the intended dose were calculated using the measure dose/MU values.
Post radiation, 2′,7′-dichlorodihydrofluorescein diacetate (H2-DCFDA) probes were used to measure the level of reactive oxygen species (ROS) post-proton radiation (1 Gy, 230 MeV proton beam). […] A fluorescence microplate reader (SpectraMax M5, Molecular Devices Corporation, California, USA) was used to detect the generation of fluorescent DCF molecules with an excitation filter of 485 nm and an emission filter of 525 nm, with a 515 nm cutoff filter. […] Following irradiation, the cells were transported back for plate reading, 30 minutes post radiation.

[2] = Stability of C60-ser, hexakis-adduct peak by HPLC-ELSD; type: physicochemical
Procedure: Stability of the C60-ser product as prepared in Example 1 was analyzed by measuring the hexakis-adduct peak with high performance liquid chromatography (HPLC) equipped with evaporative light scattering detector (ELSD). The C60-ser was stored as a solid form at 4° C. under nitrogen, as a solution in DI water at 4° C., and as a solution in DI water at room temperature. The stability of the C60-ser in each set of storage conditions was measured at 1, 7, 28, and 120 days (Table 1).

[3] = SEM analysis of C60-ser aggregates; type: physicochemical; settings: frozen and vacuum-dried solutions
Procedure: Solutions of C60-ser were frozen with liquid nitrogen and dried under high vacuum while still frozen. FIGS. 3A and 3B show example scanning electron microscopy (SEM) images of aggregates of C60-ser. The aggregates formed when solid C60-ser was dissolved in water or an aqueous salt solution. The aggregates formed within a period of seconds to several hours, after which the system remained in equilibrium.

NIH3T3 cells [4] = experiment: Seahorse mitochondrial respiration (oxygen consumption rate), NIH3T3; type: cell-based; settings: NIH3T3, pretreated 2 hours before 1 Gy 230 MeV proton
Procedure: The oxygen consumption rates were assessed in N2A, HUVEC, NIH3T3, and HepG2 cell lines with a Seahorse XFe96 (Agilent Technologies, Santa Clara, CA, USA). Cells were treated with 0 and 1 Gy of 230 MeV proton irradiation. The control plates were run at about the same time post plating. Each cell line was optimized prior to these experiments, and data was presented normalized to cell number plated. The standard mitochondrial stress test was performed using serial injections of oligomycin (1.5 μM), carbonyl cyanide p-(trifluoromethoxy)phenylhydrazone (FCCP, 1 μM), and rotenone/antimycin A mixture (0.5 μM). After injection of oligomycin, which inhibits ATP synthase (complex V), there was a drop in electron flow through the electron transport chain (ETC) and a resultant drop in oxygen consumption rate (OCR) of the cells. Injection of FCCP collapsed the proton gradient and allowed for uninhibited electron flow through the ETC supercomplexes. […] The reserve respiratory capacity was calculated by subtracting the basal respiratory capacity from the maximal respiratory capacity.

[5] = Zeta-potential of C60-ser aggregates; type: physicochemical; settings: 0.1 mg/mL and 10 mg/mL in deionized water
Procedure: Analysis was performed using a ZEN 3600 Malvern Zetasizer (Worcestershire, UK) equipped with a 633 nm laser. The electrophoretic mobilities (p) of the aggregates was measured by applying an electric field to the C60-ser solution and measuring the speed and direction of the aggregate's motion. Zeta-potentials were calculated using the solvent viscosity (n) and the water dielectric constant (e). To perform the measurements, C60-ser molecules were dissolved in deionized water, and the solution electrical conductivity was adjusted to 25-50 μS/cm by addition of small amounts of neutral 2-(N-morpholino)ethanesulfonic acid (MES) buffer. The zeta-potential of C60-ser aggregates was measured at a concentration of 0.1 mg/mL in deionized water (FIG. 5A) and 10 mg/mL in deionized water (FIG. 5B).

## O=C(NC(CO)CO)C1(C(=O)NC(CO)CO)C23c4c5c6c7c8c4-c4c2c2c9c%10c4C4%11c%12c-%10c%10c%13c%14c%12-c%12c(c-7c7c%15c%12C%14%12C(C(=O)NC(CO)CO)(C(=O)NC(CO)CO)C%12%14c%12c%16c%17c%18c(c%12-%15)C7%12C(C(=O)NC(CO)CO)(C(=O)NC(CO)CO)C6%12c6c-5c5c7c(c6-%18)C%176C(C(=O)NC(CO)CO)(C(=O)NC(CO)CO)C6%12c6c-7c(c-2c2c6-c6c%12c-%16c%14c-%13c6C%106C(C(=O)NC(CO)CO)(C(=O)NC(CO)CO)C926)C513)C84C%11(C(=O)NC(CO)CO)C(=O)NC(CO)CO (centres unmarked) [C60-ser, C60-serinol]
NIH3T3 cells [1]
  ROS (H2-DCFDA fluorescence): significant reduction in ROS
[2]; Solid form at 4° C. under nitrogen, 1 day
  Stability of C60-ser (hexakis-adduct peak): 100 ± 2%
[2]; Solid form at 4° C. under nitrogen, 7 days
  Stability of C60-ser (hexakis-adduct peak): 100 ± 1%
[2]; Solid form at 4° C. under nitrogen, 28 days
  Stability of C60-ser (hexakis-adduct peak): 100 ± 1%
[2]; Solid form at 4° C. under nitrogen, 120 days
  Stability of C60-ser (hexakis-adduct peak): 100 ± 2%
[2]; Solution in DI water at 4° C., 1 day
  Stability of C60-ser (hexakis-adduct peak): 100 ± 2%
[2]; Solution in DI water at 4° C., 7 days
  Stability of C60-ser (hexakis-adduct peak): 100 ± 2%
[2]; Solution in DI water at 4° C., 28 days
  Stability of C60-ser (hexakis-adduct peak): 100 ± 3%
[2]; Solution in DI water at 4° C., 120 days
  Stability of C60-ser (hexakis-adduct peak): 98 ± 3%
[2]; Solution in DI water at room temperature, 1 day
  Stability of C60-ser (hexakis-adduct peak): 100 ± 2%
[2]; Solution in DI water at room temperature, 7 days
  Stability of C60-ser (hexakis-adduct peak): 100 ± 2%
[2]; Solution in DI water at room temperature, 28 days
  Stability of C60-ser (hexakis-adduct peak): 96 ± 3%
[2]; Solution in DI water at room temperature, 120 days
  Stability of C60-ser (hexakis-adduct peak): 95 ± 4%
[2]; solid at 4° C. under nitrogen
  degradation of the hexakis-adduct peak: no degradation of the hexakis-adduct peak was observed
[3]
  internal diameters of hollow hull aggregates: 40-1000 nm
NIH3T3 cells [4]
  radiation-induced increase in respiratory capacity: dampened and, in some cases, reduced to normal or slightly below normal levels
[5]
  zeta-potentials of aggregates: close to zero

From patent US20240189263A1, “DERIVATIZED C60 MOLECULES AND METHODS AND MATERIALS FOR USING DERIVATIZED C60 MOLECULES TO REDUCE RADIATION INJURY” (Mayo Foundation for Medical Education and Research, priority 2021, published 2024)
